Two substances from publication PMC11351612, “Heteronuclear Complexes with Promising Anticancer Activity against Colon Cancer” (Biomedicines, 2024) can be followed below.

Series [1] is described as follows: Distribution coefficient (logP7.4), n-octanol-water shake-flask. It counts as physicochemical. To be noted: n-octanol / buffered saline pH 7.4, shake-flask. On the procedure: Distribution coefficient (logP7.4). The n-octanol-water coefficients of the complexes were determined using a shake-flask method, as previously reported. Briefly, buffered-saline distilled water (100 mL, phosphate buffer [PO4^3−] = 10 mM, [NaCl] = 0.15 M, pH 7.4) and n-octanol (100 mL) were shaken together for 72 h to allow for saturation of both phases. Approximately 1 mg of the complexes was dissolved in 5 mL of the aqueous phase and 5 mL of the organic phase was added, mixing them for 10 min. The resulting emulsion was centrifuged to separate the phases. The concentration of the compounds in each phase was determined using UV-vis absorbance spectroscopy. The logP7.4 was defined as log{[compound(organic)]/[compound(aqueous)]}.

Series [2] in a line: Solution stability by UV-vis in PBS. The format is physicochemical. The conditions noted are these: PBS pH 7.4, 37 °C; for Stability under physiological conditions (UV-vis spectrum over time): 24 h. On the procedure:
Solution chemistry. The stability of the dinuclear derivatives was analysed by absorption UV-vis spectroscopy. UV-vis absorption spectra of the complexes were recorded on a Thermo Scientific spectrophotometer. Solutions of the complexes (5 × 10^−5 M) in PBS (pH = 7.4) were prepared from 20 mM DMSO stock solutions and thereafter monitored over 24 h at 37 °C, measuring the electronic spectra.
The solution stability of the new heterometallic compounds was determined under physiological conditions. To simulate conditions similar to those in cell culture and the body, the compounds were dissolved in a phosphate-buffered saline solution (PBS) with a pH of 7.4 and then incubated at 37 °C. The UV spectra of each complex were recorded at different time intervals (Figure S14). Qualitative determination of the stability of the compounds under such conditions was achieved by comparing the spectra obtained at each time point.

The target of series [3] is T1, bovine serum albumin (BSA) (Bos taurus, UniProt P02769).
T1 construct: purchased Sigma Aldrich (St. Louis, MO, USA)
T1 sequence (P02769 25-607): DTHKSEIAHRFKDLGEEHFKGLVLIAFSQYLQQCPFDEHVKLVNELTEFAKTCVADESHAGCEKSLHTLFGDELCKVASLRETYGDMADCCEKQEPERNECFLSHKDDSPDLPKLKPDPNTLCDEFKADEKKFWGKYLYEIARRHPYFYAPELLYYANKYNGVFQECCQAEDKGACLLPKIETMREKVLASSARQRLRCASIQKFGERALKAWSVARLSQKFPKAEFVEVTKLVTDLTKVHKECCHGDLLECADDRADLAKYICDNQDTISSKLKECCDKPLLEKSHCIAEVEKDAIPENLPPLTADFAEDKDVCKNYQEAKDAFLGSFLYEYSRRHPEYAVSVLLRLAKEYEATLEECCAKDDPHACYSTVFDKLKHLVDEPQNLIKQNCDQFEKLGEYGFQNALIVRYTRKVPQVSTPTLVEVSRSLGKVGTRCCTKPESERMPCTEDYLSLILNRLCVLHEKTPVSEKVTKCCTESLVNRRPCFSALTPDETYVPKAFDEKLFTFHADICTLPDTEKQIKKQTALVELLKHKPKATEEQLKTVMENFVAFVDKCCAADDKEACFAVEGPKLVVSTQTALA
Description: BSA UV-vis absorption superposition (static vs dynamic quenching). The format is binding. To be noted: compound 24 μM, absorption spectra superposition. The procedure: Furthermore, examination of the absorption spectra of the fluorophores can be used as a means of characterising static and dynamic quenching. Given the premise that static quenching entails complex formation, alterations in the absorption spectra of BSA are to be anticipated. Conversely, since dynamic quenching only affects the excited states of BSA, its absorption spectra would remain unaltered. The absorption spectra of BSA were recorded in the absence and presence of each compound at a concentration of 24 μM, as well as the absorption spectrum of the compound at the same concentration. A mathematical superposition of the spectrum of BSA and the spectrum of the compounds was calculated.

The next series deals with Caco-2/PD7 cells. Description: MTT cell proliferation assay, Caco-2/PD7. The format is cell-based, human. The conditions noted are these: for Cytotoxic activity compared with mononuclear precursor [Au(Spy)(PTA)] (fold): Caco-2 PD7 and TC7 clones, ratio of IC50; for IC50: MTT, 72 h, mean ± SE of at least three determinations. The procedure:
(§1) Cell culture. Human colon cancer Caco-2 cells (PD7 and TC7 clones) were kindly provided by Dr. Edith Brot-Laroche (Université Pierre et Marie Curie-Paris 6, UMR S 872, Les Cordeliers, Lyon, France) and grown in Dulbecco’s Modified Eagles medium (DMEM) (Gibco Invitrogen, Paisley, UK) supplemented with 20% foetal bovine serum (FBS), 1% non-essential amino acids, 1% streptomycin (1000 μg/mL), 1% penicillin (1000 μg/mL), and 1% amphotericin (250 U/mL). Caco-2 cells were maintained at 37 °C in a humidified atmosphere at 5% CO2.
(§2) Cell proliferation assay. Cell proliferation was measured using the 3-(4,5-dimethyl-2-thiazoyl)-2,5-diphenyltetrazolium bromide (MTT) assay, as previously described. Caco-2/TC7 cells were seeded in a 96-well plate at a density of 4000 cells/well and grown for 24 h before being treated with each complex or DMSO (used as control). After 72 h of incubation with the complexes, 10 μL of MTT (5 mg/mL) were added and incubation was continued at 37 °C for 3 h. Inversion removed the medium and 100 μL of DMSO were added to each well. Absorbance at 560 nm, proportional to many living cells, was measured by spectrophotometry (SPECTROstar Nano, BMG LABTECH, Ortenberg, Germany) and converted into a percentage (%) of growth inhibition.
(§3) The antiproliferative effects of the mononuclear and heteropolinuclear complexes were tested on two different Caco-2 cancer cell lines (PD7 and […]). […] Caco-2 cells of both PD7 and TC7 clones were exposed to increasing concentrations of the assayed compounds through dose–response/cell viability analysis. The results in terms of the IC50 parameter (Table 4) were obtained by using the MTT protocol.
For orientation: Formazan colour is commonly taken as a measure of viable cells.

In the next series the test system is Caco-2/TC7 cells. The series is described as follows: MTT cell proliferation assay, Caco-2/TC7. It counts as cell-based, human. To be noted: 72 h, mean ± SE of at least three determinations. The procedure: as §1, §2, §3

As a reminder, the logP is a log measure of how a compound divides between an organic and an aqueous phase. Low values mean a more hydrophilic compound, high ones a more lipophilic compound. For orientation: IC50 means the concentration that gives 50% inhibition. Low values mean inhibition by little substance, high ones a need for much substance. In series [1], [Zn{Au(PTA)(Spy)}2](NO3)2 [compound 2] yielded a logP of 0.47. For the same substance, in series [2], the “Solubility in PBS (qualitative)” value is “highly soluble” and the “Stability under physiological conditions (UV-vis spectrum over time)” value is on record as “remained unaltered for a period of 24 h”. For the same substance, the “Quenching / binding mode with BSA” value in series [3] is listed as “static binding mode may be implied”. In the series on Caco-2/PD7 cells, the “Cytotoxic activity compared with mononuclear precursor [Au(Spy)(PTA)] (fold)” value is on record as “slight improvement” and the midpoint of inhibition, the IC50, lay at 2180 ± 240 nM. The half-inhibitory concentration (IC50) in the series with Caco-2/TC7 cells came to 1940 ± 810 nM.
As to [Cu{Au(Spy)(PTA)}2]PF6 [compound 1], the logP in series [1] came to 0.84. Besides, in series [2], the “Solubility in PBS (qualitative)” value is on record as “reduced solubility in PBS” and the “Stability under physiological conditions (UV-vis spectrum over time)” value is reported as “notable stability”. Further, the “Quenching / binding mode with BSA” value in series [3] is given as “dynamic binding”. Besides, the “Cytotoxic activity compared with mononuclear precursor [Au(Spy)(PTA)] (fold)” value with Caco-2/PD7 cells (listed as Au2Cu compound (2)) amounted to 15. Further, in the series on Caco-2/PD7 cells, the 50% inhibitory concentration (IC50) is 160 ± 20 nM. The 50% inhibitory concentration (IC50) with Caco-2/TC7 cells amounted to 130 ± 70 nM.
